Measured values as given in patent US11396506B2, “Amino acid compounds with unbranched linkers and methods of use” (Pliant Therapeutics, Inc., priority 2018, dated 2022).

Molecular target: recombinant human integrin αVβ6 (Homo sapiens (Human), UniProt P06756+P18564)
Test: Solid phase integrin αVβ6 binding assay
Settings: recombinant TGFβ1 LAP as ligand, values given as ranges, read-out: αVβ6 Inhibition IC50 (nM) - range
Experimental: Example B1—Solid Phase Integrin αVβ6 Binding Assay
Microplates were coated with recombinant human integrin αVβ6 (2 μg/mL) in PBS (100 μL/well 25 OC, overnight). The coating solution was removed, washed with wash buffer (0.05% Tween 20; 0.5 mM MnCl2; in 1×TBS). Plate was blocked with 200 μL/well of Block Buffer (1% BSA; 5% sucrose; 0.5 mM MnCl2; in 1×TBS) at 37° C. for 2 h. Dilutions of testing compounds and recombinant TGFβ1 LAP (0.67 μg/mL) in binding buffer (0.05% BSA; 2.5% sucrose; 0.5 mM MnCl2; in 1×TBS) were added. The plate was incubated for 2 hours at 25° C., washed, and incubated for 1 hour with Biotin-Anti-hLAP. Bound antibody was detected by peroxidase-conjugated streptavidin. The IC50 values for testing compounds were calculated by a four-parameter logistic regression.
The compounds tested were compound samples prepared according to procedures described in the Synthetic Examples section, with the stereochemical purity as indicated in the Examples.

recombinant human integrin αVβ6, sequence (P06756 31-992): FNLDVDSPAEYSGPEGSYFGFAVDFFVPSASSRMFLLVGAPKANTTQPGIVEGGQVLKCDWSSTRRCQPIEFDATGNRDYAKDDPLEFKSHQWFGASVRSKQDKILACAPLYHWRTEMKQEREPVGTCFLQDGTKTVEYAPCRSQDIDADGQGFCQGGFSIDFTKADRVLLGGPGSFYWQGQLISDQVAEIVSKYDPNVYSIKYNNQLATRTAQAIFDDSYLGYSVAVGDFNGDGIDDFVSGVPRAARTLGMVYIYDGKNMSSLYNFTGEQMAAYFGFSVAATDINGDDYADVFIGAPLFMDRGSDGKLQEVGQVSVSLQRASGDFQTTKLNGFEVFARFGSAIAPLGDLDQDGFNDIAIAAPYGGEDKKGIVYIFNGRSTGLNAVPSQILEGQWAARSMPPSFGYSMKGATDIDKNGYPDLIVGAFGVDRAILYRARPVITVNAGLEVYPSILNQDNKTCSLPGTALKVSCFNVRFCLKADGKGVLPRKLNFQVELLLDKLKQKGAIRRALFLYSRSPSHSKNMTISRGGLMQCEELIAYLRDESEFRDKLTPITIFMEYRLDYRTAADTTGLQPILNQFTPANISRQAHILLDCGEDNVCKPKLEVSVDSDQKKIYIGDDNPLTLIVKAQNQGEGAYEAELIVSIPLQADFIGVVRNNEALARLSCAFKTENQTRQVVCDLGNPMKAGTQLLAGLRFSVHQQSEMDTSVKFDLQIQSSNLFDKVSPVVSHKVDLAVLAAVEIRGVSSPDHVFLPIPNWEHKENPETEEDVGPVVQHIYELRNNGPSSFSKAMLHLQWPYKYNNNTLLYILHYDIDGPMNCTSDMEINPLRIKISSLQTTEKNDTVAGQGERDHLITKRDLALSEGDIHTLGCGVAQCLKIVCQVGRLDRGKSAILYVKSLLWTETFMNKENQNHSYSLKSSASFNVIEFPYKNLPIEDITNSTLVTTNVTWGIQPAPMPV
recombinant human integrin αVβ6, sequence (P18564 22-707): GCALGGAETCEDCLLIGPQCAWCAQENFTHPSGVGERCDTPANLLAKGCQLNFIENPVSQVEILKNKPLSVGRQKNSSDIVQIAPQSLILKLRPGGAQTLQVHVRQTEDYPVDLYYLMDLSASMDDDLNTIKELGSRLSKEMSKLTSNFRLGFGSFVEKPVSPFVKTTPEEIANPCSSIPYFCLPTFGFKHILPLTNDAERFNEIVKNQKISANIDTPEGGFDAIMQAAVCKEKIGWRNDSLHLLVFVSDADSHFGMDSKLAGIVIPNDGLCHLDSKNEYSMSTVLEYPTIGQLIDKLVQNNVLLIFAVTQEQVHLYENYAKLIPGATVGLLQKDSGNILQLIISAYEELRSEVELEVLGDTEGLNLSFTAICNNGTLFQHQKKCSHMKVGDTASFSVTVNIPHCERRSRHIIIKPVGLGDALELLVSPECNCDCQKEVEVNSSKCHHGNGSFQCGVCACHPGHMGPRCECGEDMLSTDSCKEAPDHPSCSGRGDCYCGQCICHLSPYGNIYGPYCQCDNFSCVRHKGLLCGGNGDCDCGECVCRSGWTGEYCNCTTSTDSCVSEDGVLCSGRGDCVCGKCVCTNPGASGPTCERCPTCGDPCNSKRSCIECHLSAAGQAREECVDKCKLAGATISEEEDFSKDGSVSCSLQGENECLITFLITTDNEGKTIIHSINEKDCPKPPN

| Structure (SMILES) | IC50 [nM] |
| --- | --- |
| CS(=O)(=O)N1CCC[C@@H](C(=O)N[C@@H](CCCCCCCc2ccc3c(n2)NCCC3)C(=O)O)C1 (mixture of isomers) [Compound 37, (S)-2-((R)-1-(methylsulfonyl)piperidine-3-carboxamido)-9-(5,6,7,8-tetrahydro-1,8-naphthyridin-2-yl)nonanoic acid and (S)-2-((S)-1-(methylsulfonyl)piperidine-3-carboxamido)-9-(5,6,7,8-tetrahydro-1,8-naphthyridin-2-yl)nonanoic Acid] | < 50 |
| O=C(O)[C@H](CCCCCCCc1ccc2c(n1)NCCC2)NC(=O)C12CC(C1)C2 [Compound 45, (S)-2-(bicyclo[1.1.1]pentane-1-carboxamido)-9-(5,6,7,8-tetrahydro-1,8-naphthyridin-2-yl)nonanoic Acid] | < 50 |
| O=C(N[C@@H](CCCCCCCc1ccc2c(n1)NCCC2)C(=O)O)C1CCNCC1 [Compound 34, (S)-2-(piperidine-4-carboxamido)-9-(5,6,7,8-tetrahydro-1,8-naphthyridin-2-yl)nonanoic Acid] | 50 to 250 |
| CS(=O)(=O)CCCC(=O)N[C@@H](CCCCCCCc1ccc2c(n1)NCCC2)C(=O)O [Compound 24, (S)-2-(4-(methylsulfonyl)butanamido)-9-(5,6,7,8-tetrahydro-1,8-naphthyridin-2-yl)nonanoic Acid] | 251 to 1000 |
| CC1(C(=O)N[C@@H](CCCCCCCc2ccc3c(n2)NCCC3)C(=O)O)CCCCC1 [Compound 44, (S)-2-(1-methylcyclohexanecarboxamido)-9-(5,6,7,8-tetrahydro-1,8-naphthyridin-2-yl)nonanoic Acid] | < 50 |
| O=C(N[C@@H](CCCCCCCc1ccc2c(n1)NCCC2)C(=O)O)C1CC2CCC(C1)O2 (stereo partly drawn) [Compound 43, (S)-2-((1R,3s,5S)-8-oxabicyclo[3.2.1]octane-3-carboxamido)-9-(5,6,7,8-tetrahydro-1,8-naphthyridin-2-yl)nonanoic acid and (S)-2-((1R,3r,5S)-8-oxabicyclo[3.2.1]octane-3-carboxamido)-9-(5,6,7,8-tetrahydro-1,8-naphthyridin-2-yl)nonanoic Acid] | < 50 |
| NS(=O)(=O)CCC(=O)N[C@@H](CCCCCCCc1ccc2c(n1)NCCC2)C(=O)O [Compound 38, (S)-2-(3-sulfamoylpropanamido)-9-(5,6,7,8-tetrahydro-1,8-naphthyridin-2-yl)nonanoic Acid] | 251 to 1000 |
| O=C(O)[C@H](CCCCCCCc1ccc2c(n1)NCCC2)NC(=O)C1(C(F)(F)F)CCOCC1 [Compound 42, (S)-9-(5,6,7,8-tetrahydro-1,8-naphthyridin-2-yl)-2-(4-(trifluoromethyl)tetrahydro-2H-pyran-4-carboxamido)nonanoic Acid] | < 50 |
| CC(C)(C)OC(=O)N1CC(C)(OC(=O)N[C@@H](CCCCCCCc2ccc3c(n2)NCCC3)C(=O)O)C1 [Compound 32, (S)-2-((((1-(tert-butoxycarbonyl)-3-methylazetidin-3-yl)oxy)carbonyl)amino)-9-(5,6,7,8-tetrahydro-1,8-naphthyridin-2-yl)nonanoic Acid] | < 50 |
| C[C@@]1(C(=O)N[C@@H](CCCCCCCc2ccc3c(n2)NCCC3)C(=O)O)CCCOC1 (mixture of isomers) [Compound 47, (S)-2-((R)-3-methyltetrahydro-2H-pyran-3-carboxamido)-9-(5,6,7,8-tetrahydro-1,8-naphthyridin-2-yl)nonanoic Acid and (S)-2-((S)-3-methyltetrahydro-2H-pyran-3-carboxamido)-9-(5,6,7,8-tetrahydro-1,8-naphthyridin-2-yl)nonanoic Acid] | 50 to 250 |

Other lines, results leading:

| IC50 [nM] | Structure (SMILES) |
| --- | --- |
| < 50 | CS(=O)(=O)N1CCC(C(=O)N[C@@H](CCCCCCCc2ccc3c(n2)NCCC3)C(=O)O)CC1 [Compound 39, (S)-2-(1-(methylsulfonyl)piperidine-4-carboxamido)-9-(5,6,7,8-tetrahydro-1,8-naphthyridin-2-yl)nonanoic Acid] |
| 50 to 250 | O=C(O)[C@H](CCCCCCCc1ccc2c(n1)NCCC2)NC(=O)[C@H]1CCOc2ccccc21 (mixture of isomers) [Compound 46, (S)-2-((S)-chromane-4-carboxamido)-9-(5,6,7,8-tetrahydro-1,8-naphthyridin-2-yl)nonanoic Acid and (S)-2-((R)-chromane-4-carboxamido)-9-(5,6,7,8-tetrahydro-1,8-naphthyridin-2-yl)nonanoic Acid] |
| 251 to 1000 | COCCCC(=O)N[C@@H](CCCCCCCc1ccc2c(n1)NCCC2)C(=O)O [Compound 30, (S)-2-(4-methoxybutanamido)-9-(5,6,7,8-tetrahydro-1,8-naphthyridin-2-yl)nonanoic Acid] |
| < 50 | CC1(C(=O)N[C@@H](CCCCCCCc2ccc3c(n2)NCCC3)C(=O)O)CCOCC1 [Compound 8, (S)-2-(4-methyltetrahydro-2H-pyran-4-carboxamido)-9-(5,6,7,8-tetrahydro-1,8-naphthyridin-2-yl)nonanoic Acid] |
| 50 to 250 | CC(=O)N1CCC(C(=O)N[C@@H](CCCCCCCc2ccc3c(n2)NCCC3)C(=O)O)CC1 [Compound 36, (S)-2-(1-acetylpiperidine-4-carboxamido)-9-(5,6,7,8-tetrahydro-1,8-naphthyridin-2-yl)nonanoic Acid] |
